“And” between values parts separate entries of the source, which are not always exact repeats. Equal entries are not always repeated. Where two headings read alike, the source gives them in different places.
Legend:
α1d-AR = target: T1, α1d-AR (Homo sapiens, UniProt P25100); experiment: α1-Adrenergic Receptor Binding Assay, 125I-HEAT radio-ligand binding, transfected COS-7 cell membranes, α1d subtype; conditions: COS-7 membranes
T1 construct: expressed in transfected cells; host or cells: COS-7 cells (African Green monkey kidney), membranes
T1 sequence (P25100 1-572): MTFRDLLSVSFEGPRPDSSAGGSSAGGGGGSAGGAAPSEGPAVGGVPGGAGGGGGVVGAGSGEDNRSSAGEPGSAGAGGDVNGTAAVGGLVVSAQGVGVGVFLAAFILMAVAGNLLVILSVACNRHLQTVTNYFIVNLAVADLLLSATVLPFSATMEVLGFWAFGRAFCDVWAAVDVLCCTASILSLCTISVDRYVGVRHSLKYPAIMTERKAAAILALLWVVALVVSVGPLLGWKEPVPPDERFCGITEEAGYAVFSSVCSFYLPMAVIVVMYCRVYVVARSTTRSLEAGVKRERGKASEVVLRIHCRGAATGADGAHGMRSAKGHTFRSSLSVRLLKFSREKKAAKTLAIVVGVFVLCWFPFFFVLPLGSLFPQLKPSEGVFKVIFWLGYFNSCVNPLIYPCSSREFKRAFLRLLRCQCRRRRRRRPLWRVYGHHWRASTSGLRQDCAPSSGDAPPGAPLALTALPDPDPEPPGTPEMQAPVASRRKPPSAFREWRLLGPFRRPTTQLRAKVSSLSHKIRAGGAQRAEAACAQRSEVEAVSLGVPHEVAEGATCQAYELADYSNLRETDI
Method in brief: (§1)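 Competition binding of ¹²⁵I-HEAT ([…]) on membranes from COS-7 cells transfected with each human α1-AR subtype; membrane 0.5 ng/μL (α1a, α1b) or 13 ng/μL (α1d). Compound […] in half-log steps, triplicates, 1 hr at rt. Filtration and scintillation counting; Ki (nM) derived.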

α1b-AR = target: T2, α1b-AR (Homo sapiens, UniProt P35368); experiment: α1-Adrenergic Receptor Binding Assay, 125I-HEAT radio-ligand binding, transfected COS-7 cell membranes, α1b subtype; conditions: COS-7 membranes
T2 construct: expressed in transfected cells; host or cells: COS-7 cells (African Green monkey kidney), membranes
T2 sequence (P35368 1-520): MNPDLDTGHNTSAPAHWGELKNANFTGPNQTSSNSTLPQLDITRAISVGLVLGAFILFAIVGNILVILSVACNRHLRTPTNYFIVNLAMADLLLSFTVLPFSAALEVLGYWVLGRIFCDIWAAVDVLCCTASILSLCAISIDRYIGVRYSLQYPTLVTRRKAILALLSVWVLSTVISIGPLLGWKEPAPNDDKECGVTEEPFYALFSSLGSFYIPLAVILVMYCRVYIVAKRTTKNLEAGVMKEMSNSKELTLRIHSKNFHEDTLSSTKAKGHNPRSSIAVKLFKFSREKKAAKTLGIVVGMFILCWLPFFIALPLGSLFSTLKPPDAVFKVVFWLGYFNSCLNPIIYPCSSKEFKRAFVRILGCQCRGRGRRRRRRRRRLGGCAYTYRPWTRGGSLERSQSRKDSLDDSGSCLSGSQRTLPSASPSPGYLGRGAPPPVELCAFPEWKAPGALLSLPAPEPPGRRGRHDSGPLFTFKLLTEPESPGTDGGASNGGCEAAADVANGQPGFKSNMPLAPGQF
Method in brief: as §1

α1a-AR = target: T3, α1a-AR (Homo sapiens, UniProt P35348); experiment: α1-Adrenergic Receptor Binding Assay, 125I-HEAT radio-ligand binding, transfected COS-7 cell membranes, α1a subtype; conditions: COS-7 membranes
T3 construct: expressed in transfected cells; host or cells: COS-7 cells (African Green monkey kidney), membranes
T3 sequence (P35348 1-466): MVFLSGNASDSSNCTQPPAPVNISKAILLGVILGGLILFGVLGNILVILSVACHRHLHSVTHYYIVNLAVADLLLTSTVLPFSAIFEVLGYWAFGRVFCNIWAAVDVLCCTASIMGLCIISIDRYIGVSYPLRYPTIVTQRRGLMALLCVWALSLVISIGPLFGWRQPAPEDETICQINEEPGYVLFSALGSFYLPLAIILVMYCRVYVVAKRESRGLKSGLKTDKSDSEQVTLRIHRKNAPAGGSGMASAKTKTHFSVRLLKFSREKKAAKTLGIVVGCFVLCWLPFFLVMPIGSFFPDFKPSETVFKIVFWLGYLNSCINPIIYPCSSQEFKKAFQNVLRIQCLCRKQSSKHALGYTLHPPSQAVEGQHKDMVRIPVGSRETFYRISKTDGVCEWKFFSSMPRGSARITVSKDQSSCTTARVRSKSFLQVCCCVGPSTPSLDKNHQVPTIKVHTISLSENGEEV
Method in brief: as §1

5-HT1A site = target: T4, 5-HT1A site (Homo sapiens, UniProt P08908); conditions: as described in the article; cited from earlier work
T4 sequence (P08908 1-422): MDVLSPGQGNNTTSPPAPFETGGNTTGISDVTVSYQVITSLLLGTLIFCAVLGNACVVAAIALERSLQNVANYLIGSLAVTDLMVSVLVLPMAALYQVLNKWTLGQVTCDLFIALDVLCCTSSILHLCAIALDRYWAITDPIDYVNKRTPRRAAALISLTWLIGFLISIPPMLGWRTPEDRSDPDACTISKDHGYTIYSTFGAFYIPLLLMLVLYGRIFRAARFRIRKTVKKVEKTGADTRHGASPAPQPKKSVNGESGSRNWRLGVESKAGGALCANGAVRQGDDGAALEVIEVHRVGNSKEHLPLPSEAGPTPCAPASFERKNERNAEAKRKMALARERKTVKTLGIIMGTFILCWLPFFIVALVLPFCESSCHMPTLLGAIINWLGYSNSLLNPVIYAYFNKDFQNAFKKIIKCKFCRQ

[1] = as described in the article; cited from earlier work
D2 = D2 (Homo sapiens, UniProt P14416); conditions: as described in the article; cited from earlier work
D2, sequence (P14416 whole entry): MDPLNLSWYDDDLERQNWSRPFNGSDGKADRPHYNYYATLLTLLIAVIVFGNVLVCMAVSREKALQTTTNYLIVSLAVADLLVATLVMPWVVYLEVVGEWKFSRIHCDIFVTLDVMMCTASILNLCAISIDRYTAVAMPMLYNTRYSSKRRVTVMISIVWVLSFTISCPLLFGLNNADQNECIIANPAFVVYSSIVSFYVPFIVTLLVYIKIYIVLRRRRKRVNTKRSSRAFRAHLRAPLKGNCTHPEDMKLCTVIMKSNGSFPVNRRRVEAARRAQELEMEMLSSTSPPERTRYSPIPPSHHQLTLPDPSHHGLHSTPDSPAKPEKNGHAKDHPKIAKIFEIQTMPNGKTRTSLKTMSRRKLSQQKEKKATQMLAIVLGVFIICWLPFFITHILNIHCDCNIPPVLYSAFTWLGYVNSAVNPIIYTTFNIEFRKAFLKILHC

[2] = average value, read-out: Alpha 1 Ki α1d (1) Average Value
[3] = individual values, read-out: Alpha 1 Ki α1d (2) Individual Values
[4] = average value, read-out: Alpha 1 Ki α1b (1) Average Value
[5] = individual values, read-out: Alpha 1 Ki α1b (2) Individual Values
[6] = average value, read-out: Alpha 1 Ki α1a (1) Average Value
[7] = individual values, read-out: Alpha 1 Ki α1a (2) Individual Values

For `CC(C)Oc1ccccc1N1CCN(CC2CC(C(=O)N3CCC(S(=O)(=O)c4ccccc4)CC3)=NO2)CC1` (stereo not shown) [Compound 30, (4-benzenesulfonyl-piperidin-1-yl)-{5-[4-(2-isopropoxy-phenyl)-piperazin-1-ylmethyl]-4,5-dihydro-isoxazol-3-yl}-methanone], the Ki (α1d-AR; [2]) was 4.5 nM, the Ki (α1d-AR; [3]) was 5.8 nM and 3.2 nM and the melting point was 74 to 76 °C. For the same compound, the Ki (α1b-AR; [4]) was 173 nM, the Ki (α1b-AR; [5]) was 164 nM and 183 nM and the Ki (α1a-AR; [6]) was 3.4 nM. It also gave a Ki (α1a-AR; [7]) of 3.4 nM.

For `CC(C)Oc1ccccc1N1CCN(CC2CC(CN3CCCCC3=O)=NO2)CC1.O.[O-][Cl+3]([O-])([O-])O` (stereo not shown) [compound 50, 1-[[4,5-dihydro-5-[[4-[2-(1-methylethoxy)phenyl]-1-piperazinyl]methyl]-3-isoxazolyl]methyl]-piperidin-2-one perchlorate hydrate], the “binding affinity for the 5-HT1A site” value (5-HT1A site) is listed as “moderately high” and the “Conditioned Avoidance Response (CAR) activity” value [1] is listed as “not so active”.

For `CC(C)Oc1ccccc1N1CCN(CC2CC(C(=O)N3CCC(c4ccccc4)(c4ccccc4)CC3)=NO2)CC1` (stereo not shown) [Compound 31, (4,4-diphenyl-piperidin-1-yl)-{5-[4-(2-isopropoxy-phenyl)-piperazin-1-ylmethyl]-4,5-dihydro-isoxazol-3-yl}-methanone], the Ki (α1d-AR; [2]) was 9.6 nM, the Ki (α1d-AR; [3]) was 9.6 nM and the melting point was 61 to 63 °C. For the same compound, the Ki (α1b-AR; [4]) was 248 nM, the Ki (α1b-AR; [5]) was 248 nM and the Ki (α1a-AR; [6]) was 25 nM. It also gave a Ki (α1a-AR; [7]) of 25 nM.

For `CC(C)Oc1ccccc1N1CCN(CC2CC(CO)=NO2)CC1` (stereo not shown) [compound 49, 4,5-dihydro-5-[[4-[2-(1-methylethoxy)phenyl]-1-piperazinyl]methyl]-3-isoxazolemethanol], the “binding affinity for the 5-HT1A site” value (5-HT1A site) is given as “lack”, the “Conditioned Avoidance Response (CAR) activity” value [1] is given as “strong” and the D2 binding (D2) is given as “lack”.

In the case of `CC(C)Oc1ccccc1N1CCN(CC2CC(C(=O)N3CC(C)(C)c4cc(Br)ccc43)=NO2)CC1` (stereo not shown) [Compound 19, (5-bromo-3,3-dimethyl-2,3-dihydro-indol-1-yl)-{5-[4-(2-isopropoxy-phenyl)-piperazin-1-ylmethyl]-4,5-dihydro-isoxazol-3-yl}-methanone], the Ki (α1d-AR; [2]) is reported as 0.6 nM, the Ki (α1d-AR; [3]) is reported as 0.4 nM and 0.8 nM and the Ki (α1b-AR; [4]) is reported as 280 nM. The Ki (α1b-AR; [5]) was 302 nM and 258 nM, the Ki (α1a-AR; [6]) was 13 nM and the Ki (α1a-AR; [7]) was 13 nM.

For `CC(C)Oc1ccccc1N1CCN(CC2CC(CN3CCCCC3=O)=NO2)CC1` (single isomer, unassigned) [Compound 2, 1-{(5R*)-5-[4-(2-isopropoxy-phenyl)-piperazin-1-ylmethyl]-4,5-dihydro-isoxazol-3-ylmethyl}-piperidin-2-one], the Ki (α1d-AR; [2]) was 4.5 nM, the Ki (α1d-AR; [3]) was 5.2 nM and 4.7 nM and 5.8 nM and 2.3 nM and the Ki (α1b-AR; [4]) was 53.5 nM. The Ki (α1b-AR; [5]) was 79 nM and 41 nM and 56 nM and 38 nM, the Ki (α1a-AR; [6]) was 0.79 nM and the Ki (α1a-AR; [7]) was 1 nM and 0.7 nM and 0.86 nM and 0.6 nM.

With `CC(=O)N1CCc2cc(NC(=O)C3=NOC(CN4CCN(c5ccccc5OC(C)C)CC4)C3)ccc21` (stereo not shown) [Compound 22, 5-[4-(2-isopropoxy-phenyl)-piperazin-1-ylmethyl]-4,5-dihydro-isoxazole-3-carboxylic acid (1-acetyl-2,3-dihydro-1H-indol-5-yl)-amide] the Ki (α1d-AR; [2]) was 1.81 nM, the Ki (α1d-AR; [3]) was 1.5 nM and 2.13 nM and the Ki (α1b-AR; [4]) was 80.4 nM. For the same compound, the Ki (α1b-AR; [5]) was 73 nM and 87.7 nM, the Ki (α1a-AR; [6]) was 2.02 nM and the Ki (α1a-AR; [7]) was 2.54 nM and 1.5 nM.

For `CC(C)Oc1ccccc1N1CCN(CC2CC(C(=O)N3CC(C)(C)c4cc(Br)ccc43)=NO2)CC1` (single isomer, unassigned) [Compound 42, (5-bromo-3,3-dimethyl-2,3-dihydro-indol-1-yl)-{(5R*)-5-[4-(2-isopropoxy-phenyl)-piperazin-1-ylmethyl]-4,5-dihydro-isoxazol-3-yl}-methanone], the Ki (α1d-AR; [2]) was 0.44 nM, the Ki (α1d-AR; [3]) was 0.44 nM and the Ki (α1b-AR; [4]) was 289 nM. For the same compound, the Ki (α1b-AR; [5]) was 289 nM, the Ki (α1a-AR; [6]) was 5.87 nM and the Ki (α1a-AR; [7]) was 5.87 nM.
